Reference: patent US5686441A, “Penam sulfones as β-lactamase inhibitors” (Syphar Laboratories, Inc., priority 1995, dated 1997)
Values after ≈ are worked out from the molar mass of the structure shown. Counter-ions that a name gives are not always drawn. Like-named read-outs stand apart in the source and are kept apart here.

Tests used:
[1] = biological target: T1, TEM-1 (Escherichia coli, UniProt P62593); test: β-lactamase inhibitory activity, spectrophotometric rate assay with nitrocefin; assay type: biochemical; settings: TEM-1 isolated from E. coli; nitrocefin substrate; read-out: 50% Inhibitory conc. TEM-1
T1 construct: TEM-1 (isolated from E. coli); endogenous in cells; host or cells: E. coli (enzyme isolated from the bacterium)
T1 sequence (P62593 24-286 limits assumed): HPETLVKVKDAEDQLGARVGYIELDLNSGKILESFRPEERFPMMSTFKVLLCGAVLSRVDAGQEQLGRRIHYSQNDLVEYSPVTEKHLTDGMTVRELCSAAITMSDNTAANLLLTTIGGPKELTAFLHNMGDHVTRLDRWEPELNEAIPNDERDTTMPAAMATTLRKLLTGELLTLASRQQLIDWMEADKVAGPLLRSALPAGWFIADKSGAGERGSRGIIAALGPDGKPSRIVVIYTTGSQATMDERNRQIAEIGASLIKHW
Experimental: (§1) The inhibitory activities of present compounds against TEM-1 (isolated from E. coli), CTX-1 (isolated from K. pneumoniae), cephalosporinase (isolated from P. aeruginoase 46012) was measured by spectrophotometric rate assay using […] and using nitrocefin as a substrate [J. Antimicrob. Chemother., 28, pp. 775-776 (1991)].

[2] = biological target: T2, cephalosporinase (Pseudomonas aeruginosa, UniProt P24735); test: as above; assay type: biochemical; settings: cephalosporinase isolated from P. aeruginoase 46012; nitrocefin substrate; read-out: 50% Inhibitory conc. Cephalosporinase
T2 construct: nitrocefin spectrophotometric assay
T2 sequence (P24735 27-397): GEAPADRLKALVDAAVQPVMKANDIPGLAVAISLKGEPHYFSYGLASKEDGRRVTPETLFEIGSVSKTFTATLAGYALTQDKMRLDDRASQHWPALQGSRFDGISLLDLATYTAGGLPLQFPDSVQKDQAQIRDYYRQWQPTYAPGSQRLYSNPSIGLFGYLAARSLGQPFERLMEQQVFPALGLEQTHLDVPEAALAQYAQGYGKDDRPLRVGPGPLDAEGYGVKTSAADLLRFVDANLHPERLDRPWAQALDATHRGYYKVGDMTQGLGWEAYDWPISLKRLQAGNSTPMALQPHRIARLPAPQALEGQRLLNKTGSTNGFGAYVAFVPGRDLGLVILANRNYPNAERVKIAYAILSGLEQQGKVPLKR
Experimental: as §1

[3] = system: E. coli OXA 3; test: MIC, agar dilution method; settings: Escherichia coli, OXA3, 18 h, read-out: MIC Piperacillin Alone
[4] = system: P. vulgaris CT106; test: MIC, agar dilution method; settings: Proteus vulgaris, CT106, 18 h, read-out: MIC Piperacillin Alone
[5] = system: E. coli TEM 3; test: MIC, agar dilution method; settings: Escherichia coli, TEM3, 18 h
[6] = system: S. aureus 80K; test: MIC, agar dilution method; settings: Staphylococcus aureus, 18 h, read-out: MIC Piperacillin Alone
[7] = system: C. freundii 2046E; test: MIC, agar dilution method; settings: Citrobacter freundii, 18 h, read-out: MIC Piperacillin Alone
[8] = system: M. morganii 36014; test: MIC, agar dilution method; settings: Morganella morganii, 36014, 18 h
[9] = system: P. aeruginosa L 46007; test: MIC, agar dilution method; settings: Pseudomonas aeruginosa, L46007, 18 h, read-out: MIC Piperacillin Alone
[10] = system: E. coli TEM 7; test: MIC, agar dilution method; settings: Escherichia coli, TEM7, 18 h
[11] = system: E. aerogenes 41004; test: MIC, agar dilution method; settings: Klebsiella aerogenes, 41004, 18 h
[12] = system: K. pneumoniae 336L; test: MIC, agar dilution method; settings: Klebsiella pneumoniae, 18 h, read-out: MIC Piperacillin Alone
[13] = system: K. pneumoniae CTX1; test: MIC, agar dilution method; settings: Klebsiella pneumoniae, CTX1, 18 h
[14] = system: A. calcoaceticus 553L; test: MIC, agar dilution method; settings: Acinetobacter calcoaceticus, 18 h, read-out: MIC Piperacillin Alone
[15] = system: M. morganii 36010; test: MIC, agar dilution method; settings: Morganella morganii, 36010, 18 h
[16] = system: E. cloacae 40011; test: MIC, agar dilution method; settings: Enterobacter cloacae, 40011, 18 h
[17] = system: E. coli OXA 1; test: MIC, agar dilution method; settings: Escherichia coli, OXA1, 18 h, read-out: MIC Piperacillin Alone
[18] = system: E. coli SHV 1; test: MIC, agar dilution method; settings: Escherichia coli, SHV1, 18 h, read-out: MIC Piperacillin Alone
[19] = system: S. aureus 1628; test: MIC, agar dilution method; settings: Staphylococcus aureus, 1628, 18 h, read-out: MIC Piperacillin Alone
[20] = system: E. cloacae P99; test: MIC, agar dilution method; settings: Enterobacter cloacae, P99, 18 h
[21] = system: S. aureus 54K; test: MIC, agar dilution method; settings: Staphylococcus aureus, 18 h, read-out: MIC Piperacillin Alone
[22] = system: S. marcescens 200L; test: MIC, agar dilution method; settings: Serratia marcescens, 18 h, read-out: MIC Piperacillin Alone
[23] = system: E. coli TEM 1; test: MIC, agar dilution method; settings: Escherichia coli, TEM1, 18 h, read-out: MIC Piperacillin Alone
[24] = system: E. cloacae E. 4009; test: MIC, agar dilution method; settings: Enterobacter cloacae, E.4009, 18 h, read-out: MIC Piperacillin Alone
[25] = system: E. aerogenes; test: MIC, agar dilution method; settings: Klebsiella aerogenes, 18 h, read-out: MIC Piperacillin Alone
[26] = system: E. cloacae 40015; test: MIC, agar dilution method; settings: Enterobacter cloacae, 40015, 18 h, read-out: MIC Piperacillin Alone
[27] = system: E. aerogenes 41003; test: MIC, agar dilution method; settings: Klebsiella aerogenes, 41003, 18 h, read-out: MIC Ceftazidime (Alone)
[28] = system: P. aeruginosa L 46003; test: MIC, agar dilution method; settings: Pseudomonas aeruginosa, L46003, 18 h, read-out: MIC Ceftazidime (Alone)
[29] = system: E. cloacae E. 40009; test: MIC, agar dilution method; settings: Enterobacter cloacae, E.40009, 18 h, read-out: MIC Ceftazidime (Alone)
[30] = system: P. aeruginosa 46220 DR-2; test: MIC, agar dilution method; settings: Pseudomonas aeruginosa, 46220DR2, 18 h, read-out: MIC Ceftazidime (Alone)
[31] = system: E. aerogenes 41006; test: MIC, agar dilution method; settings: Klebsiella aerogenes, 41006, 18 h, read-out: MIC Ceftazidime (Alone)
[32] = read-out: MIC Piperacillin Alone
[33] = read-out: MIC Ceftazidime (Alone)

C[C@]1(C=NOCC(=O)O)[C@H](C(=O)O)N2C(=O)C[C@H]2S1(=O)=O [Compound 28, (2S, 3R, 5R)-3-formyl-3-methyl-7-oxo-4-thia-1-azabicyclo[3.2.0]heptane-2-carboxylicacid, 3^1-[O-(carboxymethyl)oxime], disodium salt, 4,4-dioxide]
IC50 [1]: 4.8 nM | IC50 [2]: 1000 nM

CCON=C[C@@]1(C)[C@H](C(=O)O)N2C(=O)C[C@H]2S1(=O)=O [Compound 10, sodium (2S, 3R, 5R]-3-formyl-3-methyl-7-oxo-4-thia-1-azabicyclo[3.2.0]heptane-2-carboxylate, 3^1-(O-ethyloxime), 4,4-dioxide]
IC50 [1]: 500 nM | IC50 [2]: 1000 nM

CCN1CCN(C(=O)N[C@@H](C(=O)N[C@@H]2C(=O)N3[C@@H]2SC(C)(C)[C@@H]3C(=O)O)c2ccccc2)C(=O)C1=O [Piperacillin, piperacillin]
MIC [3]: 3.13 µg/mL (≈ 6.05 µM) | MIC [4]: 400 µg/mL (≈ 773 µM) | MIC [5, 32]: 100 µg/mL (≈ 193 µM) | MIC [6]: 12.5 µg/mL (≈ 24.2 µM) | MIC [7]: 100 µg/mL (≈ 193 µM) | MIC [8, 32]: 50 µg/mL (≈ 96.6 µM) | MIC [9]: 100 µg/mL (≈ 193 µM) | MIC [10, 32]: 100 µg/mL (≈ 193 µM) | MIC [11, 32]: 25 µg/mL (≈ 48.3 µM) | MIC [12]: 200 µg/mL (≈ 386 µM) | MIC [13, 32]: > 40 µg/mL | MIC [14]: > 400 µg/mL | MIC [15, 32]: 200 µg/mL (≈ 386 µM) | MIC [16, 32]: 50 µg/mL (≈ 96.6 µM) | MIC [17]: 25 µg/mL (≈ 48.3 µM) | MIC [18]: 50 µg/mL (≈ 96.6 µM) | MIC [19]: 400 µg/mL (≈ 773 µM) | MIC [20, 32]: 200 µg/mL (≈ 386 µM) | MIC [21]: 12.5 µg/mL (≈ 24.2 µM) | MIC [22]: 100 µg/mL (≈ 193 µM) | MIC [23]: 400 µg/mL (≈ 773 µM) | MIC [24]: 100 µg/mL (≈ 193 µM) | MIC [25]: 25 µg/mL (≈ 48.3 µM) | MIC [26]: 50 µg/mL (≈ 96.6 µM)

CC(=O)NN=C[C@@]1(C)[C@H](C(=O)O)N2C(=O)C[C@H]2S1(=O)=O [Compound 38, sodium (2S, 3R, 5R)-3-formyl-3-methyl-7-oxo-4-thia-1-azabicyclo[3.2.0]heptane-2-carboxylate, 3^1-(acetylhydrazone), 4,4-dioxide]
IC50 [1]: 1.4 nM | IC50 [2]: 600 nM

C[C@]1(C=NO)[C@H](C(=O)O)N2C(=O)C[C@H]2S1(=O)=O [Compound 5, sodium (2S, 3R, 5R)-3-formyl-3-methyl-7-oxo-4-thia-1-azabicyclo[3.2.0]heptane-2-carboxylate, 3^1-(hydroxyloxime), 4,4-dioxide]
IC50 [1]: 580 nM | IC50 [2]: 7000 nM

CC(C)(O/N=C(\C(=O)N[C@@H]1C(=O)N2C(C(=O)[O-])=C(C[n+]3ccccc3)CS[C@H]12)c1csc(N)n1)C(=O)O [Ceftazidime, ceftazidime]
MIC [27]: 25 µg/mL (≈ 45.7 µM) | MIC [5, 33]: 25 µg/mL (≈ 45.7 µM) | MIC [8, 33]: 25 µg/mL (≈ 45.7 µM) | MIC [10, 33]: 25 µg/mL (≈ 45.7 µM) | MIC [28]: 200 µg/mL (≈ 366 µM) | MIC [29]: 100 µg/mL (≈ 183 µM) | MIC [11, 33]: 25 µg/mL (≈ 45.7 µM) | MIC [13, 33]: 100 µg/mL (≈ 183 µM) | MIC [15, 33]: 200 µg/mL (≈ 366 µM) | MIC [30]: 25 µg/mL (≈ 45.7 µM) | MIC [16, 33]: 50 µg/mL (≈ 91.5 µM) | MIC [20, 33]: 100 µg/mL (≈ 183 µM) | MIC [31]: 100 µg/mL (≈ 183 µM)

CCCON=C[C@@]1(C)[C@H](C(=O)O)N2C(=O)C[C@H]2S1(=O)=O [Compound 8, sodium (2S, 3R, 5R)-3-formyl-3-methyl-7-oxo-4-thia-1-azabicyclo[3.2.0]heptane-2-carboxylate, 3^1-(O-propyloxime), 4,4-dioxide]
IC50 [1]: 100 nM | IC50 [2]: 1000 nM

CON=C[C@@]1(C)[C@H](C(=O)O)N2C(=O)C[C@H]2S1(=O)=O [Compound 3, sodium (2S, 3R, 5R)-3-formyl-3-methyl-7-oxo-4-thia-1-azabicyclo[3.2.0]heptane-2-carboxylate, 3^1-(O-methyloxime), 4,4-dioxide]
IC50 [1]: 300 nM | IC50 [2]: 1900 nM
